# In patent publication US12240840B2, “Amide-substituted heterocyclic compounds for the treatment of conditions related to the modulation of IL-12, IL-23 and/or IFN-alpha” (BRISTOL-MYERS SQUIBB COMPANY, priority 2018, dated 2025):
# System: IFNα-induced pSTAT5 (pY694) in CD3 positive cells of human whole blood
# Experiment: IFNα-Induced STAT Phosphorylation in Human Whole Blood
# Type: cell-based
# Conditions: Homo sapiens, 1 h compound incubation, 1000 U/mL recombinant human IFNα A/D for 15 min, pSTAT5 in CD3 positive population, read-out: Human WB IFNα-Induced Stat Phosph. (IC50)
# Experimental: IFNα-Induced STAT Phosphorylation in Human Whole Blood
# After an hour long incubation with compound, human whole blood (drawn with either EDTA or ACD-A as anti-coagulant) was stimulated with 1000 U/mL recombinant human IFNα A/D (R&D Systems 11200-2) for 15 min. The stimulation was stopped by adding Fix/Lyse buffer (BD 558049). Cells were stained with a CD3 FITC antibody (BD 555916), washed, and permeabilized on ice using Perm III buffer (BD 558050). Cells were then stained with an Alexa-Fluor 647 pSTAT5 (pY694) antibody (BD 612599) for 30 min prior to analysis on the FACS Canto II. The amount of pSTAT5 expression was quantitated by median fluorescence intensity after gating on the CD3 positive population.
# IFNα-Induced STAT Phosphorylation in Human Whole Blood Inhibition Data ND—no data available
row,Structure (SMILES),IC50 [nM]
1,[2H]C([2H])([2H])NC(=O)c1nnc(NC(=O)C2CC2)cc1Nc1cc(F)cc(-c2cc(C(=O)N3CCCN(C)CC3)n(C)n2)c1OC [Example 517],350
2,[2H]C([2H])([2H])NC(=O)c1nnc(NC(=O)C2CC2)cc1Nc1cccc(-c2cc(C(=O)NC3CCC(N(C)C)CC3)n(C)n2)c1OC (centres unmarked) [Example 534],470
3,[2H]C([2H])([2H])NC(=O)c1nnc(NC(=O)C2CC2)cc1Nc1cccc(-c2nc([C@@H](C)NC(C)=O)no2)c1OC [Example 194],160
4,"[2H]C([2H])([2H])NC(=O)c1nnc(NC(=O)C2CC2)cc1Nc1cccc(-c2cn(CCN3CCOCC3)nn2)c1OC [Example 422, 6-(cyclopropanecarboxamido)-4-((2-methoxy-3-(1-(2-morpholinoethyl)-1H-1,2,3-triazol-4-yl)phenyl)amino)-N-(methyl-d3)pyridazine-3-carboxamide]",590
5,COc1c(Nc2cc(NC(=O)C3CC3)nnc2C(N)=O)cccc1-c1noc(CS(C)(=O)=O)n1 [Example 64],110
6,[2H]C([2H])([2H])NC(=O)c1nnc(NC(=O)C2CC2)cc1Nc1cccc(-c2cnn(CCNC(=O)COC)n2)c1OC [Example 433],160
7,[2H]C([2H])([2H])NC(=O)c1nnc(NC(=O)C2CC2)cc1Nc1cccc(-c2cc(C(=O)NCC(O)CO)n(C)n2)c1OC (centres unmarked) [Example 521],2410
8,[2H]C([2H])([2H])NC(=O)c1nnc(NC(=O)C2CC2)cc1Nc1cccc(-c2cc(C(=O)NC(C)C)n(C)n2)c1OC [Example 535],1500
9,[2H]C([2H])([2H])NC(=O)c1nnc(NC(=O)C2CC2)cc1Nc1cccc(-c2nc(CN3CC4CN(C(=O)OC)CC4C3)no2)c1OC (centres unmarked) [Example 234],300
10,[2H]C([2H])([2H])NC(=O)c1nnc(NC(=O)C2CC2)cc1Nc1cccc(-c2ncc(C(=O)N3CCNC(=O)C3)s2)c1OC [Example 312],70
11,[2H]C([2H])([2H])NC(=O)c1nnc(NC(=O)C2CC2)cc1Nc1cccc(-c2cc(C(=O)NCCN(C)C)n(C)n2)c1OC [Example 536],650
12,[2H]C([2H])([2H])NC(=O)c1nnc(NC(=O)C2CC2)cc1Nc1cccc(-c2ncc(C(=O)NC3CCCN(C)C3)s2)c1OC (centres unmarked) [Example 337],70
13,[2H]C([2H])([2H])NC(=O)c1nnc(NC(=O)C2CC2)cc1Nc1cccc(-c2nc(CN)no2)c1OC [Example 143],320
14,[2H]C([2H])([2H])NC(=O)c1nnc(Nc2ccc(OC)nn2)cc1Nc1cccc(-c2ncc(CNC(=O)OC(C)(C)C)s2)c1OC [Example 388],> 10000
15,[2H]C([2H])([2H])NC(=O)c1nnc(NC(=O)C2CC2)cc1Nc1cccc(-c2nc([C@@H](C)N)no2)c1OC [Example 191],410
16,[2H]C([2H])([2H])NC(=O)c1nnc(NC(=O)C2CC2)cc1Nc1cc(F)cc(-c2cc(C(=O)N3CCOCC3)n(C)n2)c1OC [Example 485],130
17,[2H]C([2H])([2H])NC(=O)c1nnc(NC(=O)C2CC2)cc1Nc1cccc(-c2cnn(CCN)n2)c1OC [Example 448],140
18,[2H]C([2H])([2H])NC(=O)c1cnc(NC(=O)C2CC2)cc1Nc1cccc(-c2nc(C(C)(C)O)no2)c1OC [Example 218],390
19,[2H]C([2H])([2H])NC(=O)c1nnc(NC(=O)C2CC2)cc1Nc1cccc(-c2ncc(C(=O)NC3CCC(N(C)C)CC3)s2)c1OC (centres unmarked) [Example 307],30
20,[2H]C([2H])([2H])NC(=O)c1nnc(NC(=O)C2CC2)cc1Nc1cccc(-c2cnn(CCNC(C)=O)n2)c1OC [Example 432],300
21,[2H]C([2H])([2H])NC(=O)c1nnc(NC(=O)C2CC2)cc1Nc1cccc(-c2cnn(CC(=O)NCC)n2)c1OC [Example 427],90
22,[2H]C([2H])([2H])NC(=O)c1cnc(NC(=O)C2CC2)cc1Nc1cc(F)cc(-c2cnn(C)n2)c1OC [Example 453],60
23,COc1c(Nc2cc(NC(=O)C3CC3)nnc2C(N)=O)cccc1-c1ncc(C(=O)NC2CCCCC2)s1 [Example 396],120
24,[2H]C([2H])([2H])NC(=O)c1nnc(NC(=O)C2CC2)cc1Nc1cc(F)cc(-c2cc(C(=O)N(C)C)n(C)n2)c1OC [Example 495],60
25,[2H]C([2H])([2H])NC(=O)c1nnc(NC(=O)C2CC2)cc1Nc1cccc(-c2noc(C3CCCO3)n2)c1OC (centres unmarked) [Example 81],180
26,COc1c(Nc2cc(NC(=O)C3CC3)nnc2C(N)=O)cccc1-c1noc(CN2CCOCC2)n1 [Example 8],21
27,[2H]C([2H])([2H])NC(=O)c1nnc(NC(=O)C2CC2)cc1Nc1cccc(-c2ncc(C(=O)N3CCC(CCN4CCCC4)CC3)s2)c1OC [Example 318],80
28,[2H]C([2H])([2H])NC(=O)c1nnc(NC(=O)C2CC2)cc1Nc1cccc(-c2nc(CC(=O)N3CCOCC3)no2)c1OC [Example 179],290

# Second part, the compound after the results:
row,IC50 [nM],Structure (SMILES)
1,30,[2H]C([2H])([2H])NC(=O)c1nnc(NC(=O)C2CC2)cc1Nc1cccc(-c2noc([C@@H]3C[C@@H](O)CN3S(C)(=O)=O)n2)c1OC [Example 75]
2,170,[2H]C([2H])([2H])NC(=O)c1nnc(NC(=O)C2CC2)cc1Nc1cc(F)cc(-c2cc(C(=O)N3CCC(N4CCCC4)CC3)n(C)n2)c1OC [Example 516]
3,1830,COC(=O)N1CCN(Cc2nc(-c3cccc(Nc4cc(N)nnc4C(N)=O)c3OC)no2)CC1 [Example 105]
4,70,[2H]C([2H])([2H])NC(=O)c1nnc(NC(=O)C2CC2)cc1Nc1cccc(-c2noc(CCS(C)(=O)=O)n2)c1OC [Example 78]
5,13,[2H]C([2H])([2H])NC(=O)c1nnc(NC(=O)C2CC2)cc1Nc1cccc(-c2ncc(C(=O)NCCN3CCCC(F)C3)s2)c1OC (centres unmarked) [Example 347]
6,1790,[2H]C([2H])([2H])NC(=O)c1nnc(NC(=O)C2CC2)cc1Nc1cccc(-c2nc(CNC(=O)CN3CCN(C)CC3)no2)c1OC [Example 160]
7,930,[2H]C([2H])([2H])NC(=O)c1nnc(Nc2cnc(OC)cn2)cc1Nc1cccc(-c2csc(C(=O)NCCOC)n2)c1OC [Example 570]
8,2010,[2H]C([2H])([2H])NC(=O)c1nnc(NC(=O)C2CC2)cc1Nc1cccc(-c2noc(C(C)(C)C(=O)N3CCOCC3)n2)c1OC [Example 27]
9,130,[2H]C([2H])([2H])NC(=O)c1nnc(NC(=O)C2CC2)cc1Nc1cccc(-c2nc([C@H](C)NS(C)(=O)=O)no2)c1OC [Example 184]
10,680,[2H]C([2H])([2H])NC(=O)c1nnc(NC(=O)C2CC2)cc1Nc1cccc(-c2csc(C(=O)NCCOC)n2)c1OC [Example 566]
11,260,[2H]C([2H])([2H])NC(=O)c1nnc(NC(=O)C2CC2)cc1Nc1cccc(-c2nc(CN3CCN(C(=O)COC)CC3)no2)c1OC [Example 127]
12,150,[2H]C([2H])([2H])NC(=O)c1nnc(NC(=O)C2CC2)cc1Nc1cccc(-c2cc(C(=O)N3CCN(S(C)(=O)=O)CC3)n(C)n2)c1OC [Example 502]
13,130,COc1c(Nc2cc(NC(=O)C3CC3)nnc2C(N)=O)cccc1-c1ncc(C(=O)N2CCC(CO)CC2)o1 [Example 418]
14,> 10000,[2H]C([2H])([2H])NC(=O)c1nnc(NC(=O)C2CC2)cc1Nc1cccc(-c2nc(CNC(=O)CNC(=O)OC(C)(C)C)no2)c1OC [Example 157]
15,570,[2H]C([2H])([2H])NC(=O)c1nnc(NC(=O)C2CC2)cc1Nc1cccc(-c2nc(CN(C)C(=O)COC)no2)c1OC [Example 170]
16,700,[2H]C([2H])([2H])NC(=O)c1nnc(NC(=O)C2CC2)cc1Nc1cccc(-c2cc(C(=O)NCCCN(C)C)n(C)n2)c1OC [Example 537]
17,22,[2H]C([2H])([2H])NC(=O)c1nnc(NC(=O)C2CC2)cc1Nc1cccc(-c2noc(C(=O)NCCC3CCCN3C)n2)c1OC (centres unmarked) [Example 21]
18,> 10000,[2H]C([2H])([2H])NC(=O)c1nnc(NC(=O)C2CC2)cc1Nc1cccc(-c2nc(CC(C)C)no2)c1OC [Example 122]
19,30,[2H]C([2H])([2H])NC(=O)c1nnc(NC(=O)C2CC2)cc1Nc1cccc(-c2ncc(C(=O)N3CCC(CCO)CC3)s2)c1OC [Example 297]
20,40,CCN(CC)C1CCC(NC(=O)c2cnc(-c3cccc(Nc4cc(NC(=O)C5CC5)nnc4C(N)=O)c3OC)s2)CC1 (centres unmarked) [Example 397]
21,400,[2H]C([2H])([2H])NC(=O)c1nnc(Nc2cc(C(C)(C)O)ccn2)cc1Nc1cc(F)cc(-c2cc(C(C)(C)O)n(C)n2)c1OC [Example 547]
22,3800,COc1c(Nc2cc(NC3CC3)nnc2C(N)=O)cccc1-c1noc(CNS(C)(=O)=O)n1 [Example 118]
23,110,COc1c(Nc2cc(NC(=O)C3CC3)nnc2C(N)=O)cccc1-c1ncc(C(=O)N2CCOCC2)s1 [Example 245]
24,260,[2H]C([2H])([2H])NC(=O)c1nnc(NC(=O)C2CC2)cc1Nc1cccc(-c2ncc(C(=O)NCCCC)s2)c1OC [Example 314]
25,270,COc1c(Nc2cc(NC(=O)C3CC3)ncc2C(N)=O)cccc1-c1cnn(CCNC(=O)CC#N)n1 [Example 446]
26,1720,[2H]C([2H])([2H])NC(=O)c1nnc(NC(=O)C2CC2)cc1Nc1cccc(-c2nc(CNC(=O)CN(C)C)no2)c1OC [Example 147]
27,540,[2H]C([2H])([2H])NC(=O)c1nnc(NC(=O)C2CC2)cc1Nc1cccc(-c2ncc(CN)s2)c1OC [Example 260]
28,40,[2H]C([2H])([2H])NC(=O)c1nnc(Nc2ccc(C)nn2)cc1Nc1cccc(-c2ncc(C(=O)N(C)C)s2)c1OC [Example 384]
